In patent US20220296625A1 (priority 2019, published 2022):
Where two headings read alike, the source gives them in different places.

Tests used:
male C57BL mice [1] = test: Survival of mice after streptozotocin i.p. with or without oral LPSp (Example 1); assay type: in vivo; details: STZ 250 mg/kg i.p.; for Survival rate (%): LPSp 100 μg/kg body weight/day in drinking water
Description: 1) Reagents • LPS (LPSp) derived from Pantoea agglomerans belonging to genus Pantoea of family Enterobacteriaceae (mac0001 of Macrophi Inc.) • Streptozotocin (STZ) (SAJ-S0130 of Sigma-Aldrich)
(§1) Six-week-old male C57BL mice were used. […] As food, the D12450B diet of Research Diets, Inc. was provided.
PBS administration group (PBS i.p.): 0.5 mL of phosphate buffer saline (PBS) were injected into the peritoneal cavity of each mouse.

male C57BL mice [2] = test: Survival of mice after streptozotocin i.p. with or without oral LPSea (Example 5); assay type: in vivo; details: STZ 313 mg/kg i.p.; for Survival rate (%): LPSea 1 mg/kg body weight/day in drinking water
Source text: 1) Reagents • LPS (LPSea) derived from Enterobacter asburiae belonging to genus Enterobacter of family Enterobacteriaceae (Macrophi Inc.) • Streptozotocin (STZ) (SAJ-S0130 of Sigma-Aldrich)
as §1

male ICR mice = test: Survival of mice after cisplatin i.p. with or without oral LPSp (Example 2); assay type: in vivo; details: cisplatin 17.4 mg/kg i.p.; for Survival rate (%): LPSp 1 mg/kg body weight/day in drinking water
Source text: (§2) Four-week-old male ICR mice were used.

[3] = Body weight of mice after cyclophosphamide i.p. with or without oral LPSp (Example 3); details: 11th day and 13th day from administration; Tukey's multiple comparison test
Description: Four-week-old male ICR mice were used. Husbandry of the mice was carried out in a temperature and humidity controlled animal facility under environmental conditions of ad libitum food and water, and 12 hr light/12 hr dark. As food, CE-12 of CLEA Japan, Inc. was provided. After measuring the body weights at the time of delivery, the mice were divided into 3 groups of 6 mice each.
Physiological saline administration group (saline i.p.): 0.5 mL of physiological saline were injected into the peritoneal cavity of each mouse.

[4] = assay type: in vivo, mice; details: for Mice body weights after anticancer agent administration (relative value in % with body weights for saline i.p. being 100): LPSp 1 mg/kg body weight/day in drinking water
Source text: as §2

SMILES: CN(N=O)C(=O)N[C@H]1C(O)O[C@H](CO)[C@@H](O)[C@@H]1O (mixture of isomers) [STZ i.p., Streptozotocin]
- mice died (male C57BL mice [1]; 5th day): 6 out of 6
- Survival rate (%) (male C57BL mice [1]; day 3, 6 mice per group): 66.7%
- Survival rate (%) (male C57BL mice [1]; day 4): 33.3%
- Survival rate (%) (male C57BL mice [1]; day 4.5): 33.3%
- Survival rate (%) (male C57BL mice [1]; day 5): 0.0%
- Survival rate (%) (male C57BL mice [1]; day 9): 0.0%
- Survival rate (%) (male C57BL mice [1]; day 11): 0.0%
- Survival rate (%) (male C57BL mice [1]; day 21): 0.0%
- Survival rate (%) (male C57BL mice [1]; day 29): 0.0%
- mice died (male C57BL mice [2]; by the 4th day from anticancer agent administration, LPSea 1 mg/kg body weight/day): 1 out of 6
- Survival rate (%) (male C57BL mice [2]; day 3, 6 mice per group): 100%
- Survival rate (%) (male C57BL mice [2]; day 4): 83.33%
- Survival rate (%) (male C57BL mice [2]; day 8): 83.33%

SMILES: N.N.[Cl][Pt][Cl] [CDDP i.p., Cisplatin]
- mice survived (male ICR mice; 14th day, LPSp 1 mg/kg body weight/day, Kaplan-Meier test P<0.05): 1 out of 6
- mice died (male ICR mice; by the 6th day from anticancer agent administration, LPSp 1 mg/kg body weight/day): 5 out of 6
- Survival rate (%) (male ICR mice; day 5, 6 mice per group): 50%
- Survival rate (%) (male ICR mice; day 6): 16.7%
- Survival rate (%) (male ICR mice; day 7): 16.7%
- Survival rate (%) (male ICR mice; day 14): 16.7%

SMILES: O=P1(N(CCCl)CCCl)NCCCO1 (stereo not shown) [CY i.p., Cyclophosphamide]
- weight loss in comparison to the physiological saline administration group [3]: significant weight loss

SMILES: O=c1[nH]cc(F)c(=O)[nH]1 [5-FU i.p., 5-fluorouracil]
- Mice body weights after anticancer agent administration (relative value in % with body weights for saline i.p. being 100) ([4]; 0 day, 5-fluorouracil 360 mg/kg i.p.): 102.0 ± 2.4%
- weight loss in comparison to the physiological saline administration group ([4]; 3rd day from anticancer agent administration, 5-fluorouracil 360 mg/kg i.p., Tukey's multiple comparison test): significant weight loss
- body weight, comparison of 5-FU i.p. and 5-FU i.p.+LPS groups ([4]; 6th day, Tukey's multiple comparison test P<0.05): significantly low
- Mice body weights after anticancer agent administration (relative value in % with body weights for saline i.p. being 100) ([4]; 3 day, 5-fluorouracil 360 mg/kg i.p.): 91.8 ± 4.1 %
- Mice body weights after anticancer agent administration (relative value in % with body weights for saline i.p. being 100) ([4]; 6 day, 5-fluorouracil 360 mg/kg i.p.): 94.5 ± 2.6^ %
